We go through eleven compounds from ChEMBL document CHEMBL1201862, “PubChem BioAssay data set” (2004).

Common to all, as to assay: NCI tumour cell line growth inhibition, 48 h
In assay [1] the test system is TK-10.
For assay [2], the system named is MDA-MB-231.
The subject of assay [3] is MCF7.
Assay [4] deals with SR.
For assay [5], the system named is IGROV-1.
The subject of assay [6] is SN12C.
Assay [7] has as its system ACHN.
The subject of assay [8] is SK-OV-3.
Assay [9] concerns PC-3.
Assay [10] concerns CCRF-CEM.
Assay [11] has as its system MDA-MB-435.
Assay [12] has as its system Malme-3M.
Assay [13] has as its system SK-MEL-28.
The subject of assay [14] is RXF 393.
Assay [15] concerns CAKI-1.
The test system of assay [16] is OVCAR-5.
The test system of assay [17] is RPMI-8226.
The subject of assay [18] is SNB-19.
The test system of assay [19] is SK-MEL-2.

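All cell lines were grown in 96-well plates and treated with compound for 48 hours. Here, GI50 denotes the concentration required for 50% inhibition of growth.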 Calls of active or inactive are those of the source. No stated cut-off is given here; in the data, active = GI50 up to about 1.1 µM and inactive = higher.

`Oc1c2c(nc3cc4c(cc13)OCO4)-c1ccccc1CCC2`: the GI50 in assay [1] is > 50 µM (inactive); in assay [2], > 50 µM (inactive); in assay [3], 26.5 µM (inactive); in [4], 12.3 µM (inactive); in assay [5], 30.2 µM (inactive); in [6], > 50 µM (inactive). The GI50 in assay [7] was > 50 µM (inactive); in [8] it was > 50 µM (inactive); in assay [9] it was > 50 µM (inactive); in [10], > 50 µM (inactive); in [11], 23.7 µM (inactive); in assay [12], > 50 µM (inactive). The GI50 in [13], in assay [14], in assay [15], in assay [16], in assay [17] and in assay [18] was > 50 µM (inactive) in each case.

Turning to `C/C1=C/C(C)CC(C)OC(=O)C(C)NC(=O)C(Cc2ccc(O)c(I)c2)N(C)C(=O)CNC(=O)C(C)C1` (stereo unspecified), the GI50 was < 0.01 µM (active) in [1]; < 0.01 µM (active) in assay [2]; 0.125 µM (active) in assay [3]; < 0.01 µM (active) in assay [4]; < 0.01 µM (active) in assay [5]; 0.0342 µM (active) in [6]. For the same compound, the GI50 in assay [7] is < 0.01 µM (active); in assay [8] it was < 0.01 µM (active); in assay [9], < 0.01 µM (active); in assay [10], < 0.01 µM (active); in [11], < 0.01 µM (active); in [12], 0.0272 µM (active). The GI50 in assay [13] was 0.105 µM (active); in assay [14], < 0.01 µM (active); in [15] it was < 0.01 µM (active); in assay [16], 8.81 µM (inactive); in [17] it was < 0.01 µM (active); in [18], 2.42 µM (inactive).

Turning to `C/C(=C\CNc1ncnc2c1ncn2CCC#N)CO`, the GI50 in [1], in assay [2], in [3], in [4], in assay [5] and in assay [6] was > 100 µM (inactive) each time. The GI50 in assay [7], in assay [8], in assay [9], in assay [10], in [11] and in assay [12] was > 100 µM (inactive) throughout. Also, the GI50 in assay [13], in [14], in assay [15], in [16], in assay [17] and in [18] was > 100 µM (inactive) throughout.

On to `CC(=O)OC1[C@H](n2ccnc2)C[C@H]2[C@@H]3CC=C4CC(N5CCCC5)CC[C@]4(C)[C@H]3CC[C@]12C` (stereo partly specified), for which the GI50 in [1] is 88.1 µM (inactive); in [2], 66.2 µM (inactive); in assay [3] it was 33.9 µM (inactive); in assay [4], 12 µM (inactive); in assay [5], 43.7 µM (inactive); in [6] it was 51.9 µM (inactive). For the same compound, the GI50 in assay [7] was 52.2 µM (inactive); in assay [19] it was 20.3 µM (inactive); in [9], 34.4 µM (inactive); in assay [10] it was 25.6 µM (inactive); in assay [11], 23.8 µM (inactive); in assay [13], 21.2 µM (inactive). Moreover, the GI50 was 11.7 µM (inactive) in [14]; 43.5 µM (inactive) in assay [15]; > 100 µM (inactive) in assay [16]; 23.2 µM (inactive) in assay [17]; > 100 µM (inactive) in assay [18].

Take `Cc1ccc(C(=O)/C=C2\Nc3ccccc3N=C2NC23CC4CC(CC(C4)C2)C3)cc1`: the GI50 in [1], in assay [2], in assay [3], in assay [4], in assay [5] and in assay [6] was > 10 µM (inactive) throughout. In addition, the GI50 is > 10 µM (inactive) in assay [7]; > 10 µM (inactive) in assay [8]; > 10 µM (inactive) in assay [9]; 1 µM (active) in assay [10]; > 10 µM (inactive) in [11]; > 10 µM (inactive) in assay [12]. The GI50 in assay [13], in assay [15], in [16], in assay [17] and in assay [18] was > 10 µM (inactive) in each case.

Consider `O=[N+]([O-])c1c2nc3n(c2cc2c1nc1n2CCC1)CCC3`, for which the GI50 in [1], in assay [2], in [3], in assay [4], in assay [5] and in assay [6] was > 100 µM (inactive) throughout. In addition, the GI50 in assay [7] is > 100 µM (inactive); in assay [8], > 100 µM (inactive); in assay [9] it was > 100 µM (inactive); in assay [10], > 100 µM (inactive); in assay [11] it was > 100 µM (inactive); in assay [12], 93.1 µM (inactive). The GI50 in assay [13], in assay [14], in assay [15], in [16], in assay [17] and in assay [18] was > 100 µM (inactive) in each case.

As to `O=c1[nH]c(=O)n(C2CC(O)C(CO)O2)cc1/N=N/NCc1ccccc1` (stereo unspecified), the GI50 in [1], in [2], in assay [3], in assay [4], in assay [5] and in [6] was > 100 µM (inactive) in each case. The GI50 in assay [7], in assay [8], in assay [9], in assay [10], in assay [11] and in assay [12] was > 100 µM (inactive) each time. The GI50 in [13], in assay [14], in [15], in [16] and in assay [18] was > 100 µM (inactive) each time.

On to `CCOC(=O)C1=NN(c2ccccc2)C(=O)/C1=C\NC(=S)C(N)=S`, for which the GI50 in [1] was 36.2 µM (inactive); in assay [2], 65.2 µM (inactive); in assay [3], 36.1 µM (inactive); in [4], 35.2 µM (inactive); in [5] it was 42.6 µM (inactive); in assay [6] it was 37.8 µM (inactive). In addition, the GI50 in assay [7] is 21.5 µM (inactive); in assay [19], 43.1 µM (inactive); in assay [8], 75.7 µM (inactive); in [9], 47.5 µM (inactive); in assay [10], 34.1 µM (inactive); in assay [11], 33.8 µM (inactive). For the same compound, the GI50 is 45.3 µM (inactive) in [12]; 39.8 µM (inactive) in assay [13]; 29.2 µM (inactive) in [14]; 38.1 µM (inactive) in assay [15]; 38.6 µM (inactive) in assay [16]; 64.9 µM (inactive) in assay [18].

`O=C(O)CN1C=C(C(=O)c2cc3ccccc3n2S(=O)(=O)c2ccccc2)CCC1`: the GI50 in assay [1] was > 100 µM (inactive); in assay [2], > 100 µM (inactive); in assay [3] it was 49.9 µM (inactive); in [4], 36.4 µM (inactive); in assay [5] it was 37.2 µM (inactive); in [7], 29.6 µM (inactive). Further, the GI50 in [19] is 87.5 µM (inactive); in assay [8], > 10 µM (inactive); in assay [9], 50.4 µM (inactive); in assay [10], 30.9 µM (inactive); in assay [11], 43.5 µM (inactive); in [12], 28.4 µM (inactive). Also, the GI50 in assay [13] was > 100 µM (inactive); in assay [14] it was 54.5 µM (inactive); in assay [15], > 100 µM (inactive); in assay [16] it was > 100 µM (inactive); in assay [18], > 100 µM (inactive).

As to `C/C=C1/CN2CCC3(O)c4ccccc4N4C=C(C(=O)OC)C1CC2C43O` (stereo unspecified), the GI50 in assay [1] was > 100 µM (inactive); in assay [2], > 10 µM (inactive); in assay [3] it was > 100 µM (inactive); in [4], > 100 µM (inactive); in assay [5] it was > 100 µM (inactive); in assay [6], > 100 µM (inactive). For the same compound, the GI50 in [7], in assay [8], in assay [9], in assay [10], in [11] and in assay [12] was > 100 µM (inactive) throughout. The GI50 in assay [13], in assay [15], in assay [16], in [17] and in assay [18] was > 100 µM (inactive) in each case.

With `COc1cc(C=O)ccc1O` [VANILLIN], the GI50 in [1], in assay [2], in assay [3], in assay [4], in assay [5] and in [6] was > 100 µM (inactive) throughout. Besides, the GI50 in assay [7], in assay [9], in assay [10], in [11], in assay [12] and in assay [13] was > 100 µM (inactive) each time. Further, the GI50 in assay [15], in assay [16], in [17] and in assay [18] was > 100 µM (inactive) each time.
